Data taken from ChEMBL document CHEMBL3044921, “Synthesis, characterization, and SAR studies of new (1H-indol-3-yl)alkyl-3-(1H-indol-3-yl)propanamide derivatives as possible antimicrobial and antitubercular agents” (2013).
Values after ≈ are worked out from the molar mass of the structure shown.

Assays:
Klebsiella pneumoniae [1] = test: Antibacterial activity against Klebsiella pneumoniae assessed as growth inhibition after 16 to 18 hr by serial plate dilution method; assay type: functional
Pseudomonas aeruginosa [2] = test: Antibacterial activity against Pseudomonas aeruginosa ATCC 27853 assessed as growth inhibition after 16 to 18 hr by serial plate dilution method; assay type: functional
Escherichia coli [3] = assay type: functional, ATCC 24922
Description: Antibacterial activity against Escherichia coli ATCC 24922 assessed as growth inhibition at 1.56 to 25 ug/ml after 3 to 4 days by agar well diffusion method

[4] = tested on: Trichophyton mentagrophytes; test: Antifungal activity against Trichophyton mentagrophytes assessed as growth inhibition after 3 to 4 days by serial plate dilution method; assay type: functional
Candida albicans [5] = test: Antifungal activity against Candida albicans assessed as growth inhibition after 3 to 4 days by serial plate dilution method; assay type: functional
[6] = tested on: Mycobacterium tuberculosis; test: Antitubercular activity against Mycobacterium tuberculosis H37Rv ATCC 27294 assessed as growth inhibition at 1 to 100 ug/mL after 7 days by resazurin reduction test; assay type: functional; conditions: for MIC: Mycobacterium tuberculosis, H37Rv ATCC 27294, 168 h
Staphylococcus aureus [7] = assay type: functional, ATCC 25923
Description: Antibacterial activity against Staphylococcus aureus ATCC 25923 assessed as growth inhibition at 1.56 to 25 ug/ml after 3 to 4 days by agar well diffusion method

Candida albicans [8] = test: Antifungal activity against Candida albicans assessed as growth inhibition at […] to […] ug/ml after 3 to 4 days by agar well diffusion method; assay type: functional
Aspergillus flavus [9] = test: Antifungal activity against Aspergillus flavus NCIM 524 assessed as growth inhibition at […] to […] ug/ml after 3 to 4 days by agar well diffusion method; assay type: functional
[10] = tested on: Mycolicibacterium smegmatis; test: Antitubercular activity against Mycobacterium smegmatis ATCC 19420 assessed as growth inhibition at 0.3125 to 5 ug/mL after 7 days by resazurin reduction test; assay type: functional; conditions: ATCC 19420, 168 h
Aspergillus fumigatus [11] = test: Antifungal activity against Aspergillus fumigatus NCIM 902 assessed as growth inhibition after 3 to 4 days by serial plate dilution method; assay type: functional
[12] = tested on: Trichophyton mentagrophytes; test: Antifungal activity against Trichophyton mentagrophytes assessed as growth inhibition at […] to […] ug/ml after 3 to 4 days by agar well diffusion method; assay type: functional
Streptococcus pyogenes [13] = test: Antibacterial activity against Streptococcus pyogenes assessed as growth inhibition after 16 to 18 hr by serial plate dilution method; assay type: functional
Staphylococcus aureus [14] = test: Antibacterial activity against Staphylococcus aureus ATCC 25923 assessed as growth inhibition after 16 to 18 hr by serial plate dilution method; assay type: functional
Streptococcus pyogenes [15] = assay type: functional
Description: Antibacterial activity against Streptococcus pyogenes assessed as growth inhibition at 1.56 to 25 ug/ml after 3 to 4 days by agar well diffusion method

[16] = tested on: Mycolicibacterium fortuitum; test: Antitubercular activity against Mycobacterium fortuitum ATCC 19542 assessed as growth inhibition at 0.3125 to 5 ug/mL after 7 days by resazurin reduction test; assay type: functional; conditions: ATCC 19542, 168 h
[17] = tested on: Mycolicibacterium smegmatis; test: Antitubercular activity against Mycobacterium smegmatis ATCC 19420 assessed as growth inhibition at 1 to 100 ug/mL after 7 days by resazurin reduction test; assay type: functional; conditions: ATCC 19420, 168 h
[18] = tested on: Mycolicibacterium fortuitum; test: Antitubercular activity against Mycobacterium fortuitum ATCC 19542 assessed as growth inhibition at 1 to 100 ug/mL after 7 days by resazurin reduction test; assay type: functional; conditions: ATCC 19542, 168 h
Aspergillus flavus [19] = test: Antifungal activity against Aspergillus flavus NCIM 524 assessed as growth inhibition after 3 to 4 days by serial plate dilution method; assay type: functional
Escherichia coli [20] = test: Antibacterial activity against Escherichia coli […] assessed as growth inhibition after 16 to 18 hr by serial plate dilution method; assay type: functional
Klebsiella pneumoniae [21] = assay type: functional
Description: Antibacterial activity against Klebsiella pneumoniae assessed as growth inhibition at 1.56 to 25 ug/ml after 3 to 4 days by agar well diffusion method

Pseudomonas aeruginosa [22] = assay type: functional, ATCC 27853
Description: Antibacterial activity against Pseudomonas aeruginosa ATCC 27853 assessed as growth inhibition at 1.56 to 25 ug/ml after 3 to 4 days by agar well diffusion method

Aspergillus fumigatus [23] = test: Antifungal activity against Aspergillus fumigatus NCIM 902 assessed as growth inhibition at […] to […] ug/ml after 3 to 4 days by agar well diffusion method; assay type: functional
Talaromyces marneffei [24] = test: Antifungal activity against Talaromyces marneffei assessed as growth inhibition after 3 to 4 days by serial plate dilution method; assay type: functional
Talaromyces marneffei [25] = test: Antifungal activity against Talaromyces marneffei assessed as growth inhibition at […] to […] ug/ml after 3 to 4 days by agar well diffusion method; assay type: functional
[26] = tested on: Mycobacterium tuberculosis; test: Antitubercular activity against Mycobacterium tuberculosis H37Rv ATCC 27294 assessed as growth inhibition at 0.3125 to 5 ug/mL after 7 days by resazurin reduction test; assay type: functional; conditions: H37Rv ATCC 27294, 168 h

Structure (SMILES) | MIC (Klebsiella pneumoniae [1]) [µg/mL] | MIC (Pseudomonas aeruginosa [2]) [µg/mL] | diameter of the inhibition zone (DIZ) (Escherichia coli [3]) [mm] | MIC [4] [µg/mL] | MIC (Candida albicans [5]) [µg/mL] | growth inhibition (GI) [6] [%] | MIC [6] [µg/mL] | diameter of the inhibition zone (DIZ) (Staphylococcus aureus [7]) [mm] | diameter of the inhibition zone (DIZ) (Candida albicans [8]) [mm] | diameter of the inhibition zone (DIZ) (Aspergillus flavus [9]) [mm] | MIC [10] [µg/mL] | MIC (Aspergillus fumigatus [11]) [µg/mL] | diameter of the inhibition zone (DIZ) [12] [mm] | MIC (Streptococcus pyogenes [13]) [µg/mL] | MIC (Staphylococcus aureus [14]) [µg/mL] | diameter of the inhibition zone (DIZ) (Streptococcus pyogenes [15]) [mm] | MIC [16] [µg/mL] | MIC [17] [µg/mL] | MIC [18] [µg/mL] | MIC (Aspergillus flavus [19]) [µg/mL] | further results
O=C(CCc1c[nH]c2ccc(Cl)cc12)NCc1c[nH]c2ccc(OC(F)(F)F)cc12 | 6.25 (≈ 14.3 µM) | 6.25 (≈ 14.3 µM) | 16 | 6.25 (≈ 14.3 µM) | 6.25 (≈ 14.3 µM) | 90 | 1 (≈ 2.29 µM) | 16 | 16 | 16 | 1.25 (≈ 2.87 µM) | 6.25 (≈ 14.3 µM) | 16 | 12.5 (≈ 28.7 µM) | 6.25 (≈ 14.3 µM) | 11 | 1.25 (≈ 2.87 µM) | 1 (≈ 2.29 µM) | 10 (≈ 22.9 µM) | 6.25 (≈ 14.3 µM) | MIC (Escherichia coli [20]): 6.25 µg/mL (≈ 14.3 µM); diameter of the inhibition zone (DIZ) (Klebsiella pneumoniae [21]): 16 mm; diameter of the inhibition zone (DIZ) (Pseudomonas aeruginosa [22]): 16 mm; diameter of the inhibition zone (DIZ) (Aspergillus fumigatus [23]): 16 mm; MIC (Talaromyces marneffei [24]): 6.25 µg/mL (≈ 14.3 µM); diameter of the inhibition zone (DIZ) (Talaromyces marneffei [25]): 16 mm; MIC [26]: 1.25 µg/mL (≈ 2.87 µM)
Cc1[nH]c2ccc(OC(F)(F)F)cc2c1CNC(=O)CCc1c[nH]c2ccc(Cl)cc12 | 25 (≈ 55.6 µM) | 6.25 (≈ 13.9 µM) | 11 | 25 (≈ 55.6 µM) | 25 (≈ 55.6 µM) | 95 | 1 (≈ 2.22 µM) | 16 | <10 | 16 | 10 (≈ 22.2 µM) | 25 (≈ 55.6 µM) | <10 | 6.25 (≈ 13.9 µM) | 6.25 (≈ 13.9 µM) | 16 | 10 (≈ 22.2 µM) | 10 (≈ 22.2 µM) | 10 (≈ 22.2 µM) | 6.25 (≈ 13.9 µM) | MIC (Escherichia coli [20]): 12.5 µg/mL (≈ 27.8 µM); diameter of the inhibition zone (DIZ) (Klebsiella pneumoniae [21]): <10 mm; diameter of the inhibition zone (DIZ) (Pseudomonas aeruginosa [22]): 16 mm; diameter of the inhibition zone (DIZ) (Aspergillus fumigatus [23]): <10 mm; MIC (Talaromyces marneffei [24]): 6.25 µg/mL (≈ 13.9 µM); diameter of the inhibition zone (DIZ) (Talaromyces marneffei [25]): 16 mm; MIC [26]: 0.625 µg/mL (≈ 1.39 µM)
Cn1cc(CCC(=O)NCc2c[nH]c3ccc(OC(F)(F)F)cc23)c2cc(Cl)ccc21 | 6.25 (≈ 13.9 µM) | 6.25 (≈ 13.9 µM) | 16 | 25 (≈ 55.6 µM) | 12.5 (≈ 27.8 µM) | 95 | 1 (≈ 2.22 µM) | 16 | 11 | 16 | 1.25 (≈ 2.78 µM) | 6.25 (≈ 13.9 µM) | <10 | 6.25 (≈ 13.9 µM) | 6.25 (≈ 13.9 µM) | 16 | 10 (≈ 22.2 µM) | 1 (≈ 2.22 µM) | 10 (≈ 22.2 µM) | 6.25 (≈ 13.9 µM) | MIC (Escherichia coli [20]): 6.25 µg/mL (≈ 13.9 µM); diameter of the inhibition zone (DIZ) (Klebsiella pneumoniae [21]): 16 mm; diameter of the inhibition zone (DIZ) (Pseudomonas aeruginosa [22]): 16 mm; diameter of the inhibition zone (DIZ) (Aspergillus fumigatus [23]): 16 mm; MIC (Talaromyces marneffei [24]): 12.5 µg/mL (≈ 27.8 µM); diameter of the inhibition zone (DIZ) (Talaromyces marneffei [25]): 11 mm; MIC [26]: 0.625 µg/mL (≈ 1.39 µM)
